Patent US20240285635A1, “USE OF PYRROLOPYRIMIDINE COMPOUND AND PHARMACEUTICAL COMPOSITION THEREOF FOR TREATING CHRONIC GRAFT VERSUS HOST DISEASE” (CHIA TAI TIANQING PHARMACEUTICAL GROUP CO., LTD., priority 2021, published 2024)
Where “and” joins values, the source holds several entries; their conditions need not be identical. Equal values may be shown once. Entries after “also recorded” stand apart in the source; their conditions may differ.

System: glucocorticoid-refractory/dependent moderate and severe cGVHD subjects
Assay: Clinical study of tablets of the compound of formula I in glucocorticoid-refractory/dependent moderate and severe cGVHD subjects
Type: in vivo, human
Set-up: key to C1 organ score and efficacy: efficacy / C3 organ score and efficacy: efficacy / C6 organ score and efficacy: efficacy / C9 organ score and efficacy: efficacy / C12 organ score and efficacy: efficacy: Complete response (CR): all reversible clinical symptoms of cGVHD were completely alleviated; Partial response (PR): there was improvement in at least one organ or site, but no improvement in all other organs or sites; Stable disease (SD): cGVHD clinical performance was not worsened compared to baseline; Disease progression (PD): any one organ or site was worsened
Description: As used herein, 2014 NIH cGVHD meeting consensus criteria was used for clinical diagnosis, disease grading, and evaluation of disease status or effectiveness.
As used herein, the severity of adverse events was determined using the NCI-CTC AE 5.0 criteria.
The subjects of the study were glucocorticoid-refractory/dependent moderate and severe cGVHD subjects. The safety and the tolerability of the tablets of the compound of formula I in the glucocorticoid-refractory/dependent moderate and severe cGVHD subjects were evaluated, and the efficacy and the safety of the tablets of the compound of formula I in the glucocorticoid-refractory/dependent moderate and severe cGVHD subjects were further evaluated.
Method of administration: orally administered twice daily at fasting, with 28 consecutive days of administration as one treatment cycle.
Drug: the tablets of the compound of formula I with 5 mg or 20 mg of the active ingredient, the compound of formula I being its stereoisomer, a compound of formula II
During the study, the investigator would evaluate the cGVHD activity through NIH consensus on cGVHD to define the response effect and make a record accordingly.
Complete response (CR): all reversible clinical symptoms of cGVHD were completely alleviated. Irreversible clinical manifestations would be defined by NIH consensus criteria.
Partial response (PR): there was improvement in at least one organ or site, but no improvement in all other organs or sites.
Stable disease (SD): cGVHD clinical performance was not worsened compared to baseline.
Disease progression (PD): any one organ or site was worsened. In addition, the emergence of new clinical manifestations of cGVHD was also counted as progression.
Objective response rate (ORR): refers to the percentage of subjects in complete response (CR) or partial response (PR) as determined by the investigator according to NIH cGVHD response assessment.
Best objective response rate (ORR): refers to the percentage of subjects whose best response was complete response (CR) or partial response (PR) as determined by the investigator according to NIH cGVHD response assessment.

[1] = 10 mg bid oral, cycle C1, individual subjects
[2] = 10 mg bid oral, cycle C1, individual subjects 1-4
[3] = 10 mg bid oral, cycle C3, individual subjects
[4] = 10 mg bid oral, cycle C3, individual subjects 1-4
[5] = 10 mg bid oral, cycle C6, individual subjects
[6] = 10 mg bid oral, cycle C6, individual subjects 1-4
[7] = 10 mg bid oral, cycle C9, individual subjects
[8] = 10 mg bid oral, cycle C9, individual subjects 1-4
[9] = 10 mg bid oral, cycle C12, individual subjects
[10] = 10 mg bid oral, cycle C12, individual subjects 1-2
[11] = 15 mg bid oral, cycle C1, individual subjects
[12] = 15 mg bid oral, cycle C1, individual subjects 5-8
[13] = 15 mg bid oral, cycle C3, individual subjects
[14] = 15 mg bid oral, cycle C3, individual subjects 5-8
[15] = 15 mg bid oral, cycle C6, individual subjects
[16] = 15 mg bid oral, cycle C6, individual subjects 5-8
[17] = 15 mg bid oral, cycle C9, subject 5
[18] = of the patients evaluated in Table 2, 10 or 15 mg bid

Q: How did the “C1 organ score: esophagus” value [1] turn out when `N#CC[C@H](C1CCCC1)n1cc(-c2ncnc3[nH]ccc23)c(N)n1` [compound of formula I] was run?
A: 1 point for points

Q: And the “C1 organ score: eye” value [1]?
A: skin, 1 point points (2×) and 1 point for eye, points (2×)

Q: What about the “C1 organ score: joint” value [1] of the same compound?
A: 1 point for points and 1 points

Q: And the “C1 organ score: lung” value [1]?
A: 3 points for (2×) and 0 points for

Q: What about the “C1 organ score: lung, percentage in parentheses” value [1] of the same compound?
A: lung (34.4%), and lung (81.8%), and 25%

Q: And the “C1 organ score: oral cavity” value [1]?
A: 1 point for points

Q: What about the “C1 organ score: skin” value [1] of the same compound?
A: 1 point for points and 3 points for

Q: And the “C1 organ score: upper digestive tract” value [1]?
A: 1 point for points

Q: What about the “C1 organ score and efficacy: comprehensive score” value [2] of the same compound?
A: score 6;; also recorded: score 1;; also recorded: score 2;

Q: What about the “C1 organ score and efficacy: efficacy” value [2] of the same compound?
A: efficacy: PR

Q: And the “C3 organ score: esophagus” value [3]?
A: 1 point for points

Q: And the “C3 organ score: eye” value [3]?
A: 1 point for eye, points

Q: What about the “C3 organ score: joint” value [3] of the same compound?
A: 1 point for points and 1 points

Q: What about the “C3 organ score: joint fascia” value [3] of the same compound?
A: 2 points for

Q: What about the “C3 organ score: lung” value [3] of the same compound?
A: 0 points for

Q: And the “C3 organ score: lung, percentage in parentheses” value [3]?
A: lung (31%), and lung (81.0%), and 28.1%

Q: What about the “C3 organ score: skin” value [3] of the same compound?
A: 1 point for points

Q: What about the “C3 organ score: upper digestive tract” value [3] of the same compound?
A: 0 points for

Q: What about the “C3 organ score and efficacy: comprehensive score” value [4] of the same compound?
A: score 5;; also recorded: score 1;

Q: And the “C3 organ score and efficacy: efficacy” value [4]?
A: efficacy: PR

Q: What about the “C6 organ score: esophagus” value [5] of the same compound?
A: 1 point for points

Q: What about the “C6 organ score: eye” value [5] of the same compound?
A: 1 point for eye, points

Q: What about the “C6 organ score: joint” value [5] of the same compound?
A: 1 point for points and 1 points

Q: What about the “C6 organ score: joint fascia” value [5] of the same compound?
A: 2 points for

Q: What about the “C6 organ score: lung” value [5] of the same compound?
A: 3 points for (2×) and 0 points for

Q: And the “C6 organ score: lung, percentage in parentheses” value [5]?
A: lung (33%), and lung (80%), and 25.0%

Q: And the “C6 organ score: skin” value [5]?
A: 1 point for points and 2 points for

Q: And the “C6 organ score: upper digestive tract” value [5]?
A: 0 points for

Q: And the “C6 organ score and efficacy: comprehensive score” value [6]?
A: score 5;; also recorded: score 1;

Q: And the “C6 organ score and efficacy: efficacy” value [6]?
A: efficacy: PR

Q: And the “C9 organ score: esophagus” value [7]?
A: 1 point for points and 0 points for

Q: What about the “C9 organ score: eye” value [7] of the same compound?
A: skin, 0 points (2×) and 1 point for eye, points (2×)

Q: And the “C9 organ score: joint” value [7]?
A: 1 point for points and 1 points

Q: And the “C9 organ score: lung” value [7]?
A: 3 points for (2×) and 0 points for

Q: And the “C9 organ score: lung, percentage in parentheses” value [7]?
A: lung (35.1%), and 26.6%

Q: What about the “C9 organ score: skin” value [7] of the same compound?
A: 0 points for

Q: And the “C9 organ score: upper digestive tract” value [7]?
A: 0 points for

Q: What about the “C9 organ score and efficacy: comprehensive score” value [8] of the same compound?
A: score 5;; also recorded: score 0;; also recorded: score 1;

Q: What about the “C9 organ score and efficacy: efficacy” value [8] of the same compound?
A: efficacy: PR; also recorded: efficacy: CR

Q: What about the “C12 organ score: esophagus” value [9] of the same compound?
A: 1 point for points

Q: And the “C12 organ score: eye” value [9]?
A: skin, 0 points

Q: What about the “C12 organ score: joint fascia” value [9] of the same compound?
A: 2 points for

Q: And the “C12 organ score: lung” value [9]?
A: 3 points for

Q: What about the “C12 organ score: lung, percentage in parentheses” value [9] of the same compound?
A: lung (35.1%),

Q: And the “C12 organ score: skin” value [9]?
A: 0 points for

Q: And the “C12 organ score: upper digestive tract” value [9]?
A: 0 points for

Q: And the “C12 organ score and efficacy: comprehensive score” value [10]?
A: score 5;; also recorded: score 0;

Q: What about the “C12 organ score and efficacy: efficacy” value [10] of the same compound?
A: efficacy: PR; also recorded: efficacy: CR

Q: What about the “C1 organ score: esophagus” value [11] of the same compound?
A: 0 points for

Q: And the “C1 organ score: eye” value [11]?
A: skin, 1 point points; also recorded: skin, 2 points

Q: And the “C1 organ score: joint fascia” value [11]?
A: 1 points and 1 point for points

Q: What about the “C1 organ score: lower digestive tract” value [11] of the same compound?
A: 1 point for points

Q: And the “C1 organ score: lung” value [11]?
A: tract, 3 points and 3 points for

Q: What about the “C1 organ score: lung, percentage in parentheses” value [11] of the same compound?
A: 20.5% and lung (28.7%), and lung (55%),

Q: And the “C1 organ score: skin” value [11]?
A: 1 point for points and 3 points for

Q: And the “C1 organ score and efficacy: comprehensive score” value [12]?
A: score 8;; also recorded: score 6;; also recorded: score 3;; also recorded: score 7;

Q: What about the “C1 organ score and efficacy: efficacy” value [12] of the same compound?
A: efficacy: PR; also recorded: efficacy: SD

Q: And the “C3 organ score: esophagus” value [13]?
A: 0 points for

Q: And the “C3 organ score: joint fascia” value [13]?
A: 1 points and 1 point for points and 2 points for

Q: What about the “C3 organ score: lower digestive tract” value [13] of the same compound?
A: 1 point for points

Q: What about the “C3 organ score: lung” value [13] of the same compound?
A: tract, 3 points

Q: And the “C3 organ score: lung, percentage in parentheses” value [13]?
A: 17% and lung (27.8%), and lung (55%),

Q: What about the “C3 organ score: skin” value [13] of the same compound?
A: 1 point for points

Q: And the “C3 organ score and efficacy: comprehensive score” value [14]?
A: score 8;; also recorded: score 5;; also recorded: score 2;; also recorded: score 7;

Q: What about the “C3 organ score and efficacy: efficacy” value [14] of the same compound?
A: efficacy: PR; also recorded: efficacy: SD

Q: And the “C6 organ score: esophagus” value [15]?
A: 0 points for and 1 point for points

Q: What about the “C6 organ score: joint fascia” value [15] of the same compound?
A: 1 points and 0 points for and 2 points for

Q: What about the “C6 organ score: lower digestive tract” value [15] of the same compound?
A: 1 point for points

Q: What about the “C6 organ score: lung” value [15] of the same compound?
A: tract, 3 points and 3 points for and 2 points for

Q: What about the “C6 organ score: lung, percentage in parentheses” value [15] of the same compound?
A: 15.9% and lung (28.4%), and lung (52.7%),

Q: What about the “C6 organ score: skin” value [15] of the same compound?
A: 2 points for (2×) and 1 point for points (2×)

Q: What about the “C6 organ score and efficacy: comprehensive score” value [16] of the same compound?
A: score 8;; also recorded: score 4;; also recorded: score 2;; also recorded: score 6;

Q: What about the “C6 organ score and efficacy: efficacy” value [16] of the same compound?
A: efficacy: PR

Q: What about the “C9 organ score and efficacy: comprehensive score” value [17] of the same compound?
A: score 6;

Q: What about the “C9 organ score and efficacy: efficacy” value [17] of the same compound?
A: efficacy: PR

Q: What about the “C9 organ score: eye” value [17] of the same compound?
A: skin, 2 points

Q: What about the “C9 organ score: joint fascia” value [17] of the same compound?
A: 0 points

Q: What about the “C9 organ score: lower digestive tract” value [17] of the same compound?
A: 0 points for

Q: And the “C9 organ score: lung” value [17]?
A: tract, 3 points

Q: And the “C9 organ score: lung, percentage in parentheses” value [17]?
A: 17.6%

Q: And the “C9 organ score: skin” value [17]?
A: 0 points for

Q: And the “patients in complete response (CR)” value [18]?
A: 1 patient

Q: And the “patients in partial response (PR)” value [18]?
A: 7 patients

Q: And the “clinical benefit in the treatment of chronic graft-versus-host disease” value (patients evaluated in Table 2)?
A: clinical benefits

Q: And the tolerability and safety (tablets, cGVHD subjects)?
A: good tolerability and safety
